Calls of active or inactive are those of the source.
Tests used:
[1] = molecular target: T1, Cytochrome P450 1A2 (Homo sapiens, UniProt P05177);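 further: PubChem cytochrome P450 panel assay, CYP1A2 panel member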
T1 sequence (P05177 whole entry): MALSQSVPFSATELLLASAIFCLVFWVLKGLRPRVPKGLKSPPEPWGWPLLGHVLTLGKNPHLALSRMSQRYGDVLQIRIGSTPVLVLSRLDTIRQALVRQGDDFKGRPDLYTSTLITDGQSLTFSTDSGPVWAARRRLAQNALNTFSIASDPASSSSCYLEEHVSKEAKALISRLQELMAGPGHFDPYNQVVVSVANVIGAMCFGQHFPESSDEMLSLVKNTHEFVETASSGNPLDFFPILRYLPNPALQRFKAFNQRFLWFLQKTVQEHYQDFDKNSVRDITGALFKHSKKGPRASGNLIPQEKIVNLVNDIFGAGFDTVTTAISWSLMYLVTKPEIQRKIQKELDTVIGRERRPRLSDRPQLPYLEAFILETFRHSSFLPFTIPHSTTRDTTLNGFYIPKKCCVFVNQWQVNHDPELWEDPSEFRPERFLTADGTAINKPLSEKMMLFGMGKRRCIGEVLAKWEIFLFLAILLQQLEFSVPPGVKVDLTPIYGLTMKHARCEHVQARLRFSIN

[2] = molecular target: Cytochrome P450 2C9 (Homo sapiens, UniProt P11712)
Chain of Cytochrome P450 2C9 (P11712 whole entry): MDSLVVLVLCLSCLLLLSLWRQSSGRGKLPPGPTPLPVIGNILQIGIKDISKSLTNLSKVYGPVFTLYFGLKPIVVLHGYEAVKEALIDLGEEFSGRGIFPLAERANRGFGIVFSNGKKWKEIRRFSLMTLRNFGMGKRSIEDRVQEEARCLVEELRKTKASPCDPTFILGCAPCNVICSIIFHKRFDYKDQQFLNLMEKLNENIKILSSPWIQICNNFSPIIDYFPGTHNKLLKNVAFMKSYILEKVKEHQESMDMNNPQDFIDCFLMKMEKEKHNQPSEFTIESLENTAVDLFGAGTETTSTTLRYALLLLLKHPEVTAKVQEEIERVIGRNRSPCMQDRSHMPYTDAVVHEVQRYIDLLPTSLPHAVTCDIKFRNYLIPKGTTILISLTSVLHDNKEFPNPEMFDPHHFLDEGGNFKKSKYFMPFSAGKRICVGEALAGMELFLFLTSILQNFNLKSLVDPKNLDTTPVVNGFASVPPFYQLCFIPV

[3] = molecular target: Cytochrome P450 2C19 (Homo sapiens, UniProt P33261); assay: Cytochrome panel assay with activity outcomes. Panel member name: p450-cyp2c19 Compounds with AC50 equal or less than 10 uM are considered active; type: functional
Chain of Cytochrome P450 2C19 (P33261 whole entry): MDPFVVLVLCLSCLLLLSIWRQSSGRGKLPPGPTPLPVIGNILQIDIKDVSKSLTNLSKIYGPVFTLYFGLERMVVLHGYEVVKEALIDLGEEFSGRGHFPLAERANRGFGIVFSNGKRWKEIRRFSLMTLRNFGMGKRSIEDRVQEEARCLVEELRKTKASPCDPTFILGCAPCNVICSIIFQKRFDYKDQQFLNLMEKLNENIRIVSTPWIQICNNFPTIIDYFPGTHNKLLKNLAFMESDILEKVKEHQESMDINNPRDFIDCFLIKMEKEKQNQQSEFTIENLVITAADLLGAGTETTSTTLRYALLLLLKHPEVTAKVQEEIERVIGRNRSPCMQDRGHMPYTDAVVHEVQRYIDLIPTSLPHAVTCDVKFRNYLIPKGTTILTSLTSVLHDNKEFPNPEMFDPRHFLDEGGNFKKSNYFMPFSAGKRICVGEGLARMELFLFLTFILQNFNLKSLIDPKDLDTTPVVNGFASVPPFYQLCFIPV

[4] = molecular target: T2, Replicative DNA helicase DnaB (Mycobacterium tuberculosis, UniProt P9WMR3); assay: DnaB intein splicing inhibitors, dose response, biochemical, cell-free fluorescence (AID 449749); type: functional
T2 sequence (P9WMR3 whole entry): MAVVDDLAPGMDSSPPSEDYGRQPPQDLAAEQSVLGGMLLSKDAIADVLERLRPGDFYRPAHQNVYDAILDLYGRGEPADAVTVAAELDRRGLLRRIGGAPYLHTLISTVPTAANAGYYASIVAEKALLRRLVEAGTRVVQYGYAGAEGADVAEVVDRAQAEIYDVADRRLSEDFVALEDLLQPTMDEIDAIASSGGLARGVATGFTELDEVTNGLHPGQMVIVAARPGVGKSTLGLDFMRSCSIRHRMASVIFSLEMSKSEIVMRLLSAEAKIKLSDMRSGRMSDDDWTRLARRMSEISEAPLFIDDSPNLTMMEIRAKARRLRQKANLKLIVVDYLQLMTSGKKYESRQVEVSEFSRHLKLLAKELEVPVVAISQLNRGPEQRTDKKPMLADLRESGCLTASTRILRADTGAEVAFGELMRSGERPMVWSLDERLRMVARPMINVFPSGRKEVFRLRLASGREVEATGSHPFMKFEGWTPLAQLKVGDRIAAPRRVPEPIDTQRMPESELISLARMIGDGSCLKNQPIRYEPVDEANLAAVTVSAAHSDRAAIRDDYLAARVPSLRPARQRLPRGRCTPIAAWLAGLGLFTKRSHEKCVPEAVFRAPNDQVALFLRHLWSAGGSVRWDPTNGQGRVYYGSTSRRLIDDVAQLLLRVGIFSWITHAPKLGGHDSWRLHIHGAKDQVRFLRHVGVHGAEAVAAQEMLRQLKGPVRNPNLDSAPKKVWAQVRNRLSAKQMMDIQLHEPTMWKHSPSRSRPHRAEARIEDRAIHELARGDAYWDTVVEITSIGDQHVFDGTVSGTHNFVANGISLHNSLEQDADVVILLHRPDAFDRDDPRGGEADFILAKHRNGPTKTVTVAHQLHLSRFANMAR

[5] = molecular target: T3, Protein RecA (Mycobacterium tuberculosis, UniProt P9WHJ3); assay: Fluorescence Cell-Free Homogeneous Dose Retest to Identify Inhibitors of RecA-Intein Splicing Activity. [Related pubchem assays (depositor defined):AID2097, AID2223, AID489010, AID492950]; type: functional
T3 sequence (P9WHJ3 whole entry): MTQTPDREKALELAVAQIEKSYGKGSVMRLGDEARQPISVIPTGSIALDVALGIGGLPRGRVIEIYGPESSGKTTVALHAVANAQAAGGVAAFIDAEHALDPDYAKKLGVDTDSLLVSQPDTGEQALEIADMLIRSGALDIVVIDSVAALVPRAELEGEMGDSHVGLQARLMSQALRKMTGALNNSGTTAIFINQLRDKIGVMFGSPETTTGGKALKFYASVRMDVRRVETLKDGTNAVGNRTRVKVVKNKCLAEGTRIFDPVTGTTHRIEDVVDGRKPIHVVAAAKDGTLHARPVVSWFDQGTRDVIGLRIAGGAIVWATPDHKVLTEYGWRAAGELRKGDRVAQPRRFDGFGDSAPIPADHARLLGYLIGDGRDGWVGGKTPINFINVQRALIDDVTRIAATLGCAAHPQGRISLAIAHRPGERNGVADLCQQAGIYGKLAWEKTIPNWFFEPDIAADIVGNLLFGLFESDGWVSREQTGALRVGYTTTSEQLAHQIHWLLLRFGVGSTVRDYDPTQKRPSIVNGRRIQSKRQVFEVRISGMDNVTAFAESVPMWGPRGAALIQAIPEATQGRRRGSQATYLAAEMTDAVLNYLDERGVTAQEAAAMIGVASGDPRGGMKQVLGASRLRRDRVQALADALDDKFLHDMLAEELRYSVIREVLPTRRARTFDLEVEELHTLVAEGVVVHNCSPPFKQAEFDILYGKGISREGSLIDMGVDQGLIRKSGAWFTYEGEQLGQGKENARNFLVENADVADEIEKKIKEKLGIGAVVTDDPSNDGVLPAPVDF

[6] = molecular target: Cytochrome P450 2D6 (Homo sapiens, UniProt P10635);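 further: CYP2D6 member of a cytochrome P450 panel assay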
Chain of Cytochrome P450 2D6 (P10635 whole entry): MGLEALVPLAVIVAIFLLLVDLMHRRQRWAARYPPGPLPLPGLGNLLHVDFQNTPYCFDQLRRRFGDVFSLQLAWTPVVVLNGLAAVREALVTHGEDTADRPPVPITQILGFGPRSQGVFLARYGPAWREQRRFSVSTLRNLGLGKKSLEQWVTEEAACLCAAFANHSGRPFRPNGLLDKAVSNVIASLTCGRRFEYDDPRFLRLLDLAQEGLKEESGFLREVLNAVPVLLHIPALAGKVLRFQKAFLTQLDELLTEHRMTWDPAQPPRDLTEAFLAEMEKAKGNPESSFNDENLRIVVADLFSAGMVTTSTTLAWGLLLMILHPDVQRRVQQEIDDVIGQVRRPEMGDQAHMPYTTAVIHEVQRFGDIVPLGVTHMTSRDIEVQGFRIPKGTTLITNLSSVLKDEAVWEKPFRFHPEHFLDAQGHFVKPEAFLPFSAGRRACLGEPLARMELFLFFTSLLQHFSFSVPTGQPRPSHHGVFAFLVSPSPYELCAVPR

[7] = molecular target: T4, Protein skinhead-1 (Caenorhabditis elegans, UniProt P34707); type: functional
T4 sequence (P34707 whole entry): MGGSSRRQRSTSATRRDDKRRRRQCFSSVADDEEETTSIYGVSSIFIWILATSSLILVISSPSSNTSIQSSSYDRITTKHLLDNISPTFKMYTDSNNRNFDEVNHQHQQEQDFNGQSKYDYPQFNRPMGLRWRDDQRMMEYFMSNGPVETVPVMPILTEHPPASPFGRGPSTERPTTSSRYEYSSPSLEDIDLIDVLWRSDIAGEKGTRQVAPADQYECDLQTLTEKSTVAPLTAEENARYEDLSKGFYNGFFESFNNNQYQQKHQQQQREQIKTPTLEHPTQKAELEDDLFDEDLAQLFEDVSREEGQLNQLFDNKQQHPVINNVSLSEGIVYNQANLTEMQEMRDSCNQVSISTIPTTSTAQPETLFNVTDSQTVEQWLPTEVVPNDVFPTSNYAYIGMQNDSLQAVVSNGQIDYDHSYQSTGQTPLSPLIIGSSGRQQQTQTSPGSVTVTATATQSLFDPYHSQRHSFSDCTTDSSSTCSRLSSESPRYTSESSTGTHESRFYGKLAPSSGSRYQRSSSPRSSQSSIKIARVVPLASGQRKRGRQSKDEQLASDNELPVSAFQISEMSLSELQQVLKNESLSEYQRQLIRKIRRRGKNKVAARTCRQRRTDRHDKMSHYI

[8] = molecular target: T5, Corticotropin-releasing factor receptor 2/Corticotropin-releasing factor-binding protein (Homo sapiens, UniProt P24387+Q13324); assay: activators of CRF receptor 2 with binding protein – uHTS hits, confirmation (AID 602473); type: functional; settings: read-out: EC50_Mean
T5 sequence (Q13324 whole entry): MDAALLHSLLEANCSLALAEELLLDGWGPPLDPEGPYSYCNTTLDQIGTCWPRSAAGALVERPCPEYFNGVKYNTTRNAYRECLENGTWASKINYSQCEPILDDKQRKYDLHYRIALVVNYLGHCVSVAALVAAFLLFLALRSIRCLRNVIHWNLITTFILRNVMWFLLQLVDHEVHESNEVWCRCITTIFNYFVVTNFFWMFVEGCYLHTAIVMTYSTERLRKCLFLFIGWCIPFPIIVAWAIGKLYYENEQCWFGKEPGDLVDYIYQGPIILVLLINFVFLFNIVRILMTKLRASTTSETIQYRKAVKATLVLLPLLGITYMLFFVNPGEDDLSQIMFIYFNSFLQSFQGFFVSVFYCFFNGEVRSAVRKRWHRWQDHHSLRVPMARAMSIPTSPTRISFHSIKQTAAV
T5 sequence (P24387 whole entry): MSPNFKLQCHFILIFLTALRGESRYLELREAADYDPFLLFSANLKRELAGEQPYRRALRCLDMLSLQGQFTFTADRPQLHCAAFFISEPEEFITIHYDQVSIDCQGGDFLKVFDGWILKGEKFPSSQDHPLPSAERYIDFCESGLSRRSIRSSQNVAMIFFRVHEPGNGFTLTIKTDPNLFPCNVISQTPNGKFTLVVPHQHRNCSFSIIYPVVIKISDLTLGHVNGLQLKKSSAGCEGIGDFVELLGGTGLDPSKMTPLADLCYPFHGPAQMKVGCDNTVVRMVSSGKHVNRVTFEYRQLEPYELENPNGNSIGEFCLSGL

| Structure (SMILES) | AC50 [1] | IC50 [7] | other results |
| --- | --- | --- | --- |
| CN1CCN(c2ncc3nc(-c4cccc(C#N)c4)c(=O)n(C)c3n2)CC1 | 12.6 µM (inconclusive) | – | AC50 [2]: 39.8 µM (inconclusive) |
| CCN(CC)Cc1c(O)c(Cl)cc2c3c(c(=O)oc12)CCCC3 | 11.2 µM (inconclusive) | – | AC50 [3]: inconclusive; AC50 [2]: 25.1 µM (inconclusive) |
| NCCCCCCCCCCNS(=O)(=O)c1cccc2c(Cl)cccc12 | 15.8 µM (inconclusive) | – | – |
| Cc1n[nH]c2c1C1(CCN(C(=O)c3ccccc3)CC1)C(C#N)=C(N)O2 | – | – | AC50 [4]: 7.89 µM (active); EC50 [5]: 1.3 µM (active) |
| CCCC/C=C/C(NC(=O)C(C)(C)C)c1ccccc1 (stereo not given) | 20 µM (inconclusive) | – | AC50 [6]: 20 µM (inconclusive); AC50 [2]: 39.8 µM (inconclusive) |
| CCCCn1cnc2c(c(CC#N)nn2-c2ccccc2)c1=N | 1 µM (inconclusive) | – | AC50 ([3]; read-out: AC50): 6.31 µM (inconclusive) |
| CCOc1cc(NC(=O)c2ccco2)c(OCC)cc1NC(=O)CCc1ccccc1OC | – | > 100 µM (inactive) | – |
| Cc1noc(C)c1-c1ccc2ncnc(N3CCC(C(=O)O)CC3)c2c1 | 25.1 µM (inconclusive) | – | – |
| Nc1nc(-c2ccc(-c3ccccc3)cc2)cs1 | – | > 100 µM (inactive) | – |
| Nc1nc(-c2ccc(Oc3ccccc3)cc2)cs1 | – | 98.1 µM (inactive) | – |
| Cn1nc(C(=O)N2CCN(S(=O)(=O)c3ccccc3)CC2)c2ccccc2c1=O | – | > 100 µM (inactive) | – |
| Cc1cc2ccccc2n1CCNC(=O)c1ccc(S(=O)(=O)N2CCOCC2)cc1 | – | > 100 µM (inactive) | – |
| COc1ccc(-c2ccc(C3C(C#N)=C(N)Oc4[nH]nc(C)c43)o2)cc1 (stereo not given) | – | – | EC50 [8]: 10.1 µM (active) |
| COc1ccccc1C(=O)Nc1ccc(Br)cc1C | – | > 100 µM (inactive) | – |
| CCCC(C(=O)NCC1CCCO1)N(Cc1ccccc1)C(=O)CNS(=O)(=O)c1ccccc1 (stereo not given) | – | > 100 µM (inactive) | – |
| O=[N+]([O-])c1ccc2cn(-c3ccccc3)nc2c1 | – | 54.4 µM (inactive) | – |

| Structure (SMILES) | AC50 [1] | IC50 [7] | other results |
| --- | --- | --- | --- |
| Cc1ccc(CN2CC34C=CC(O3)C(C(=O)NCc3ccc5c(c3)OCO5)C4C2=O)cc1 (stereo not given) | 17.8 µM (inconclusive) | – | AC50 [2]: 12.6 µM (inconclusive) |
| COc1ccc(C2C(C#N)=C(N)Oc3[nH]nc(C)c32)cc1CN1CCN(c2ccc(F)cc2)CC1 (stereo not given) | – | – | AC50 [4]: 10.3 µM (active); EC50 [5]: 6.55 µM (active); AC50 [6]: 25.1 µM (inconclusive); AC50 [2]: 35.5 µM (inconclusive) |
| COc1cc2c(cc1OC)C(C(=O)Nc1ccccn1)C(c1cccnc1)N(C)C2=O (stereo not given) | 25.1 µM (inconclusive) | – | AC50 [2]: 11.2 µM (inconclusive) |
| O=C(C=Cc1ccccc1)c1cc(Br)ccc1O | – | > 100 µM (inactive) | – |
| O=C=Nc1ccc(Cc2ccc(N=C=O)cc2)cc1.O=c1oc(=O)c2cc3c(=O)oc(=O)c3cc12 | 5.01 µM (inconclusive) | – | – |
| CC1(c2ccc(Cl)cc2)NC(=O)N(CN2CCOCC2)C1=O (stereo not given) | – | > 100 µM (inactive) | – |
| Cc1cc(N2CCOCC2)nc(N)n1 | – | – | EC50 [8]: 10.4 µM (active) |
| N#C/C(=C/c1ccc(-c2ccc([N+](=O)[O-])cc2)o1)c1nnc(N2CCOCC2)n1-c1ccccc1 | – | – | EC50 [8]: 11 µM (active) |
| CCN(CC(=O)Nc1ccccc1C(F)(F)F)C(=O)C1CC(=O)N(Cc2ccccc2)C1 (stereo not given) | – | > 100 µM (inactive) | – |
| CCOC(=O)c1c(/N=C/C2C(=O)NC(=S)NC2=O)sc2c1CCC2 | – | – | EC50 [8]: > 53 µM (inactive) |
| Cc1ccccc1CNC(=O)c1ccc2sc([C@H]3C[C@H](O)[C@@H](CO)O3)nc2c1 | – | > 100 µM (inactive) | – |
| COc1ccccc1N1CCN(CCCCN2C(=O)CCC2=O)CC1 | 39.8 µM (inconclusive) | – | – |
| CCOC(=O)/C=c1\s/c(=C(\C#N)C(N)=O)n(-c2ccccc2)c1=O | – | – | AC50 [4]: 9.68 µM (active); EC50 [5]: > 380 µM (inconclusive) |
| CC(/C=N\NC(=O)Cn1c(C)nc2ccccc21)=C\c1ccccc1 | 8.91 µM (inconclusive) | – | AC50 ([3]; read-out: AC50): 0.562 µM (inconclusive) |
| Cc1cc(CC(=O)O)n(C)c1C(=O)c1ccc(Cl)cc1 [ZOMEPIRAC SODIUM] | 12.6 µM (inconclusive) | – | – |

Source: ChEMBL document CHEMBL1201862, “PubChem BioAssay data set” (2004)
